Reference: patent US8426408B2, “Pyrimidine inhibitors of kinases” (AbbVie Inc., priority 2009, dated 2013)

Experiments:
[1] = tested on: NCI-H1299 cells; assay: Induction of polyploidy in H1299; assay type: cell-based, Human; conditions: NCI-H1299, 48 hours; for EC15: Homo sapiens, read-out: EC15 (concentration of inhibitor necessary to induce polyploidy in 15% of cells)
Procedure, shortened: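 Potency is given as EC15, the inhibitor concentration giving 15% polyploid cells, from log dose-response least-squares analysis. Polyploid cells (nuclear area >750 μ^2, ≥4N) were counted by Hoechst high-content microscopy. H1299 cells had been exposed for 48 h at 37 C in duplicate, then fixed in 3% formalin.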

[2] = biological target: T1, Aurora A (Homo sapiens, UniProt O14965); assay: Aurora A enzyme inhibition (time-resolved fluorescence, STK substrate-2); assay type: biochemical; conditions: 1 mM ATP
T1 sequence (O14965 1-403): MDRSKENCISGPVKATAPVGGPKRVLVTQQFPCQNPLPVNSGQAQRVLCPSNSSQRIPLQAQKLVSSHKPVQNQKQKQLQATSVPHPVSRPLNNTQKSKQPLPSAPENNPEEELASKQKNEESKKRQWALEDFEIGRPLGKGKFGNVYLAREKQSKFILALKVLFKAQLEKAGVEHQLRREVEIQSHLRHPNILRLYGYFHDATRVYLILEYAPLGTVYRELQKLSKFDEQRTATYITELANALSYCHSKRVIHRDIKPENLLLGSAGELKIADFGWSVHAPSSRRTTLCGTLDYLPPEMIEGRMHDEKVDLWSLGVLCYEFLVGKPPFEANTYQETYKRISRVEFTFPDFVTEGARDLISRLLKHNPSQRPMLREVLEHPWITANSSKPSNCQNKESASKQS
Procedure, shortened: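 Phosphorylation of biotinylated STK substrate-2 at 1 mM ATP, 1 h, Hepes buffer pH 7.4 (MgCl2, sodium orthovanadate, Triton X-100). After EDTA quench, 665/615 nm time-resolved fluorescence ratio read via europium anti-phospho antibody and SA-XL665; IC50 from exponential fit versus inhibitor concentration.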

Row | SMILES | Ki [2] [nM] | EC15 (concentration of inhibitor necessary to induce polyploidy in 15% of cells) [1] | EC15 [1] [nM]
1 | Cn1cc(Nc2ncc(Cl)c(N[C@@H]3[C@H](C(N)=O)[C@H]4CC[C@@H]3O4)n2)cn1.Cn1cc(Nc2ncc(Cl)c(N[C@H]3[C@@H](C(N)=O)[C@@H]4CC[C@H]3O4)n2)cn1 (mixture of isomers) [Example 141, (1S,2R,3S,4R)-3-({5-chloro-2-[(1-methyl-1H-pyrazol-4-yl)amino]pyrimidin-4-yl}amino)-7-oxabicyclo[2.2.1]heptane-2-carboxamide and (1R,2S,3R,4S)-3-({5-chloro-2-[(1-methyl-1H-pyrazol-4-yl)amino]pyrimidin-4-yl}amino)-7-oxabicyclo[2.2.1]heptane-2-carboxamide] | < 100 | B (“B” represents an EC15 of between 0.1 μM and 1 μM) | –
2 | Cn1cc(Nc2ncc(Cl)c(N[C@@H]3CC[C@@H]3C(N)=O)n2)cn1.Cn1cc(Nc2ncc(Cl)c(N[C@H]3CC[C@H]3C(N)=O)n2)cn1 (mixture of isomers) [Example 151, (1S,2R)-2-({5-chloro-2-[(1-methyl-1H-pyrazol-4-yl)amino]pyrimidin-4-yl}amino)cyclobutanecarboxamide and (1R,2S)-2-({5-chloro-2-[(1-methyl-1H-pyrazol-4-yl)amino]pyrimidin-4-yl}amino)cyclobutanecarboxamide] | < 100 | A (“A” represents an EC15 of less than 0.1 μM) | –
3 | CCn1cc(Nc2ncc(Cl)c(NC3C4CCC(O4)C3C(N)=O)n2)cn1 (racemic) [Example 142, (1S,2R,3S,4R)-3-({5-chloro-2-[(1-ethyl-1H-pyrazol-4-yl)amino]pyrimidin-4-yl}amino)-7-oxabicyclo[2.2.1]heptane-2-carboxamide and (1R,2S,3R,4S)-3-({5-chloro-2-[(1-ethyl-1H-pyrazol-4-yl)amino]pyrimidin-4-yl}amino)-7-oxabicyclo[2.2.1]heptane-2-carboxamide] | < 100 | B (“B” represents an EC15 of between 0.1 μM and 1 μM) | –
4 | CC(C)NC(=O)C1CCCC1Nc1nc(Nc2cnn(C3CCNCC3)c2)ncc1Cl (racemic) [Example 163, (1S,2R)-2-[(5-chloro-2-{[1-(piperidin-4-yl)-1H-pyrazol-4-yl]amino}pyrimidin-4-yl)amino]-N-isopropylcyclopentanecarboxamide and (1R,2S)-2-[(5-chloro-2-{[1-(piperidin-4-yl)-1H-pyrazol-4-yl]amino}pyrimidin-4-yl)amino]-N-isopropylcyclopentanecarboxamide] | < 100 | A (“A” represents an EC15 of less than 0.1 μM) | –
5 | CNC(=O)Cn1cc(Nc2ncc(Cl)c(N[C@@H]3[C@H]4CC[C@H](C4)[C@@H]3C(N)=O)n2)cn1 [Example 88, (1R,2S,3R,4S)-3-{[5-chloro-2-({1-[2-(methylamino)-2-oxoethyl]-1H-pyrazol-4-yl}amino)pyrimidin-4-yl]amino}bicyclo[2.2.1]heptane-2-carboxamide] | < 100 | – | 100 to 1000
6 | CN(C)CC(=O)N1CCC(n2cc(Nc3ncc(Cl)c(N[C@H]4[C@@H](C(N)=O)[C@@H]5C=C[C@H]4C5)n3)cn2)CC1 [Example 89, (1S,2S,3R,4R)-3-{[5-chloro-2-({1-[1-(N,N-dimethylglycyl)piperidin-4-yl]-1H-pyrazol-4-yl}amino)pyrimidin-4-yl]amino}bicyclo[2.2.1]hept-5-ene-2-carboxamide] | < 100 | – | < 100
7 | CN1CCN(CCn2cc(Nc3ncc(Cl)c(N[C@@H]4[C@H]5CC[C@H](C5)[C@@H]4C(N)=O)n3)cn2)CC1 [Example 90, (1R,2S,3R,4S)-3-{[5-chloro-2-({1-[2-(4-methylpiperazin-1-yl)ethyl]-1H-pyrazol-4-yl}amino)pyrimidin-4-yl]amino}bicyclo[2.2.1]heptane-2-carboxamide] | < 100 | – | 100 to 1000
8 | CN1CCN(CCn2cc(Nc3ncc(Cl)c(N[C@H]4[C@@H](C(N)=O)[C@@H]5C=C[C@H]4C5)n3)cn2)CC1 [Example 91, (1S,2S,3R,4R)-3-{[5-chloro-2-({1-[2-(4-methylpiperazin-1-yl)ethyl]-1H-pyrazol-4-yl}amino)pyrimidin-4-yl]amino}bicyclo[2.2.1]hept-5-ene-2-carboxamide] | < 100 | – | < 100
9 | CC(=O)N1CCC(n2cc(Nc3ncc(Cl)c(N[C@H]4[C@@H](C(N)=O)[C@@H]5C=C[C@H]4C5)n3)cn2)CC1 [Example 92, (1S,2S,3R,4R)-3-[(2-{[1-(1-acetylpiperidin-4-yl)-1H-pyrazol-4-yl]amino}-5-chloropyrimidin-4-yl)amino]bicyclo[2.2.1]hept-5-ene-2-carboxamide] | < 100 | – | < 100
10 | NC(=O)[C@H]1[C@@H]2CC[C@@H](C2)[C@H]1Nc1nc(Nc2cnn(CCO)c2)ncc1Cl [Example 93, (1R,2S,3R,4S)-3-[(5-chloro-2-{[1-(2-hydroxyethyl)-1H-pyrazol-4-yl]amino}pyrimidin-4-yl)amino]bicyclo[2.2.1]heptane-2-carboxamide] | < 100 | – | < 100
11 | CN1CCC(Cn2cc(Nc3ncc(Cl)c(N[C@H]4[C@@H](C(N)=O)[C@@H]5C=C[C@H]4C5)n3)cn2)CC1 [Example 97, (1S,2S,3R,4R)-3-{[5-chloro-2-({1-[(1-methylpiperidin-4-yl)methyl]-1H-pyrazol-4-yl}amino)pyrimidin-4-yl]amino}bicyclo[2.2.1]hept-5-ene-2-carboxamide] | < 100 | – | 100 to 1000
12 | Cn1cc(Nc2ncc(Cl)c(Nc3ccccc3C3(O)CCC3)n2)cn1 [Example 101, 1-[2-({5-chloro-2-[(1-methyl-1H-pyrazol-4-yl)amino]pyrimidin-4-yl}amino)phenyl]cyclobutanol] | < 100 | – | < 100
13 | NC(=O)[C@@H]1[C@H](Nc2nc(Nc3cnn(C[C@H]4CCCN4)c3)ncc2Cl)[C@H]2C=C[C@@H]1C2 [Example 102, (1S,2S,3R,4R)-3-{[5-chloro-2-({1-[(2R)-pyrrolidin-2-ylmethyl]-1H-pyrazol-4-yl}amino)pyrimidin-4-yl]amino}bicyclo[2.2.1]hept-5-ene-2-carboxamide] | < 100 | – | < 100
14 | C[C@@H](O)Cn1cc(Nc2ncc(Cl)c(N[C@@H]3[C@H]4CC[C@H](C4)[C@@H]3C(N)=O)n2)cn1 [Example 104, (1R,2S,3R,4S)-3-{[5-chloro-2-({1-[(2R)-2-hydroxypropyl]-1H-pyrazol-4-yl}amino)pyrimidin-4-yl]amino}bicyclo[2.2.1]heptane-2-carboxamide] | < 100 | – | < 100

Second part, led by results:

Row | Ki [2] [nM] | SMILES | EC15 (concentration of inhibitor necessary to induce polyploidy in 15% of cells) [1] | EC15 [1] [nM]
15 | < 100 | CCn1cc(Nc2ncc(Cl)c(N[C@H]3[C@@H](C(N)=O)[C@@H]4C=C[C@H]3C4)n2)cn1 (racemic) [Example 30, (1S,2S,3R,4R)-3-({5-chloro-2-[(1-ethyl-1H-pyrazol-4-yl)amino]pyrimidin-4-yl}amino)bicyclo[2.2.1]hept-5-ene-2-carboxamide and (1R,2R,3S,4S)-3-({5-chloro-2-[(1-ethyl-1H-pyrazol-4-yl)amino]pyrimidin-4-yl}amino)bicyclo[2.2.1]hept-5-ene-2-carboxamide] | A (“A” represents an EC15 of less than 0.1 μM) | –
16 | < 100 | CC(C)n1cc(Nc2ncc(Cl)c(N[C@H]3[C@@H](C(N)=O)[C@@H]4C=C[C@H]3C4)n2)cn1 [Example 98, (1S,2S,3R,4R)-3-({5-chloro-2-[(1-isopropyl-1H-pyrazol-4-yl)amino]pyrimidin-4-yl}amino)bicyclo[2.2.1]hept-5-ene-2-carboxamide] | – | < 100
17 | < 100 | CC(C)CCn1cc(Nc2ncc(Cl)c(N[C@H]3[C@@H](C(N)=O)[C@@H]4C=C[C@H]3C4)n2)cn1 [Example 99, (1S,2S,3R,4R)-3-[(5-chloro-2-[1-(3-methylbutyl)-1H-pyrazol-4-yl]aminopyrimidin-4-yl)amino]bicyclo[2.2.1]hept-5-ene-2-carboxamide] | – | < 100
18 | < 100 | COCCOCCn1cc(Nc2ncc(Cl)c(N[C@H]3[C@@H](C(N)=O)[C@@H]4C=C[C@H]3C4)n2)cn1 [Example 100, (1S,2S,3R,4R)-3-{[5-chloro-2-({1-[2-(2-methoxyethoxy)ethyl]-1H-pyrazol-4-yl}amino)pyrimidin-4-yl]amino}bicyclo[2.2.1]hept-5-ene-2-carboxamide] | – | < 100
19 | < 100 | NC(=O)[C@@H]1[C@H](Nc2nc(Nc3cnn(CC(=O)O)c3)ncc2Cl)[C@H]2C=C[C@@H]1C2 [Example 103, {4-[(4-{[(1R,2R,3S,4S)-3-carbamoylbicyclo[2.2.1]hept-5-ene-2-yl]amino}-5-chloropyrimidin-2-yl)amino]-1H-pyrazol-1-yl}acetic acid] | – | < 100
20 | < 100 | C[C@@H](O)Cn1cc(Nc2ncc(Cl)c(N[C@H]3[C@@H](C(N)=O)[C@@H]4C=C[C@H]3C4)n2)cn1 [Example 105, (1S,2S,3R,4R)-3-{[5-chloro-2-({1-[(2R)-2-hydroxypropyl]-1H-pyrazol-4-yl}amino)pyrimidin-4-yl]amino}bicyclo[2.2.1]hept-5-ene-2-carboxamide] | – | < 100
